Among the data in PubChem BioAssay (NCI) are TGI and GI50 values, retold here.

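Step 1: Grow cells in 96-well plates. Step 2: Expose to compound for 48 hours at 5 concentrations. Step 3: Interpolate endpoints linearly; if unreached, use highest concentration. GI50: concentration for 50% inhibition of growth. Definition used: TGI = concentration required for complete inhibition of growth.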

Among the test systems are K-562 leukemia; DLD-1 colon; SNB-78 CNS; ACHN renal; CCRF-CEM leukemia; SNB-19 CNS; OVCAR-4 ovarian; SF-268 CNS; SR leukemia; MDA-MB-231 breast.
Common to all, as to test: NCI tumour cell line growth inhibition, 48 h

On to `Cc1ccc(S(=O)(=O)N/N=C(/c2nc3ccc([N+](=O)[O-])cc3[nH]c2=O)C(O)c2ccc(C(O)/C(=N\NS(=O)(=O)c3ccc(C)cc3)c3nc4ccc([N+](=O)[O-])cc4[nH]c3=O)cc2)cc1` (configuration not stated), for which the TGI with K-562 leukemia, in the assay on DLD-1 colon, with SNB-78 CNS, with ACHN renal, with CCRF-CEM leukemia and in the assay on SNB-19 CNS was greater than 100 µM throughout.

With `O=C(NNc1ccccc1)/C(=C/c1ccc2c(c1)OCO2)NC(=O)c1ccccc1`, the TGI in the assay with K-562 leukemia, in the assay with DLD-1 colon, in the assay with OVCAR-4 ovarian, in the assay on SF-268 CNS, in the assay on SR leukemia and with SNB-78 CNS was greater than 100 µM throughout. The TGI with ACHN renal, with CCRF-CEM leukemia and in the assay with SNB-19 CNS was greater than 100 µM throughout.

Consider `CC(C)(C)C(C#N)(C#N)c1ccc(C(C#N)(C#N)C(C)(C)C)nn1`, for which the TGI in the assay on K-562 leukemia, in the assay on DLD-1 colon, in the assay on OVCAR-4 ovarian, with SF-268 CNS, with SNB-78 CNS and in the assay on ACHN renal was greater than 100 µM in each case. The TGI in the assay with CCRF-CEM leukemia and in the assay with SNB-19 CNS was greater than 100 µM each time.

For `CC1=C(C(=O)Nc2cc(F)c(F)cc2F)C(c2ccc([N+](=O)[O-])cc2)C(C(=O)Nc2cc(F)c(F)cc2F)=C(C)N1`, the TGI in the assay on K-562 leukemia, in the assay with DLD-1 colon, in the assay with OVCAR-4 ovarian, with SF-268 CNS, in the assay with SNB-78 CNS and in the assay with ACHN renal was greater than 100 µM each time. Moreover, the values for the TGI with CCRF-CEM leukemia and in the assay with SNB-19 CNS were 78.7 µM and greater than 100 µM, respectively.

Take `COc1cc(CCc2ccc(N)cc2)cc(OC)c1OC`: the TGI with K-562 leukemia is greater than 100 µM; in the assay with DLD-1 colon, greater than 100 µM; in the assay with OVCAR-4 ovarian, greater than 100 µM; in the assay on SF-268 CNS, greater than 100 µM; in the assay with SNB-78 CNS it was 85 µM; with ACHN renal, greater than 100 µM. Besides, the TGI in the assay on CCRF-CEM leukemia and with SNB-19 CNS was greater than 100 µM throughout.

Consider `CC(=O)OC1COC(n2c(=S)n(-c3ccccc3)c(=O)c3ccccc32)C(OC(C)=O)C1OC(C)=O` (configuration not stated), for which the TGI in the assay with K-562 leukemia, in the assay on DLD-1 colon, in the assay with OVCAR-4 ovarian, in the assay on SF-268 CNS, in the assay with SNB-78 CNS and in the assay on ACHN renal was greater than 100 µM each time. Further, the TGI in the assay with CCRF-CEM leukemia and in the assay on SNB-19 CNS was greater than 100 µM each time.

As to `O=C(Nc1nc2c(ncn2C2OC(CO)C(O)C2O)c(=O)[nH]1)c1ccccc1` (configuration not stated), the TGI with K-562 leukemia, with DLD-1 colon, in the assay on OVCAR-4 ovarian, in the assay on SF-268 CNS, in the assay with SR leukemia and in the assay on SNB-78 CNS was greater than 100 µM throughout. Further, the TGI with ACHN renal and in the assay on CCRF-CEM leukemia was greater than 100 µM in each case.

For the molecule `CC(=O)NNc1nc(C)c(C(=O)NNC(=O)C(=O)Nc2ccc(Cl)cc2Cl)s1`, the TGI is 50.2 µM with K-562 leukemia; greater than 100 µM with DLD-1 colon; 56.8 µM with OVCAR-4 ovarian; 78.6 µM in the assay on SF-268 CNS; greater than 100 µM in the assay with SNB-78 CNS; 87.9 µM in the assay with ACHN renal. For the same molecule, the figures for the TGI in the assay with CCRF-CEM leukemia and with SNB-19 CNS were 56.2 µM and greater than 100 µM, respectively.

With `CCCCCCC[CH2][Sn]1([CH2]CCCCCCC)[O]C(=O)c2cccnc2[O]1`, the GI50 with K-562 leukemia, with DLD-1 colon, in the assay on OVCAR-4 ovarian, in the assay on SR leukemia, in the assay with SNB-78 CNS and in the assay on ACHN renal was greater than 100 µM in each case. For the same molecule, the GI50 in the assay on CCRF-CEM leukemia and in the assay with SNB-19 CNS was greater than 100 µM each time. Further, the TGI in the assay on K-562 leukemia, in the assay with DLD-1 colon, in the assay with OVCAR-4 ovarian, with SR leukemia, with SNB-78 CNS and in the assay on ACHN renal was greater than 100 µM in each case. Also, the TGI in the assay on CCRF-CEM leukemia and with SNB-19 CNS was greater than 100 µM in each case.

With `CC1=C(C(=O)Nc2ccc(Cl)c(C(=O)OC(C)C)c2)SCCO1`, the TGI was greater than 90.2 µM in the assay on K-562 leukemia; greater than 79.4 µM in the assay with DLD-1 colon; greater than 97.6 µM in the assay with OVCAR-4 ovarian; greater than 89.9 µM with SF-268 CNS; greater than 100 µM with SNB-78 CNS; greater than 100 µM in the assay on MDA-MB-231 breast. The TGI in the assay with ACHN renal was greater than 100 µM; in the assay with CCRF-CEM leukemia it was 65.1 µM; in the assay on SNB-19 CNS, greater than 77.4 µM.

Regarding `CCOc1ccc(NC(=O)CC2C(=O)Nc3ccccc3S2(=O)=O)cc1` (configuration not stated), the TGI with K-562 leukemia, with DLD-1 colon, in the assay with OVCAR-4 ovarian, with SF-268 CNS, in the assay on SR leukemia and in the assay with SNB-78 CNS was greater than 100 µM throughout. The TGI in the assay on ACHN renal and in the assay with SNB-19 CNS was greater than 100 µM each time.

In the case of `C=CCc1cc(OC)c2c(c1)C(OC)CC(c1ccc(OC)c(OC)c1)O2` (configuration not stated), the TGI with K-562 leukemia, with DLD-1 colon, in the assay with OVCAR-4 ovarian, with SF-268 CNS, with SNB-78 CNS and in the assay with ACHN renal was greater than 100 µM in each case. The TGI with CCRF-CEM leukemia and with SNB-19 CNS was greater than 100 µM each time.

Consider `NS(=O)(=O)OCCCCCCCOS(N)(=O)=O`, for which the TGI in the assay on K-562 leukemia is 2110 µM; in the assay on DLD-1 colon it was 1540 µM; in the assay on OVCAR-4 ovarian, 1110 µM; with SF-268 CNS, 1290 µM; with SR leukemia, 912 µM; with SNB-78 CNS, 2020 µM. The TGI in the assay on MDA-MB-231 breast amounted to 1030 µM; in the assay with ACHN renal it was 951 µM; in the assay on CCRF-CEM leukemia it was 1140 µM; in the assay with SNB-19 CNS it was 1250 µM.

For the molecule `Nc1ncnc2c1ncn2C1CC(OCc2ccccc2[N+](=O)[O-])C(CO)O1` (configuration not stated), the TGI in the assay on K-562 leukemia is greater than 50 µM; in the assay on DLD-1 colon, greater than 50 µM; in the assay with OVCAR-4 ovarian it was greater than 50 µM; with SF-268 CNS, greater than 50 µM; with SR leukemia, 34.6 µM; in the assay on SNB-78 CNS, greater than 50 µM. The TGI in the assay with ACHN renal was 47.6 µM; with CCRF-CEM leukemia, greater than 50 µM; in the assay on SNB-19 CNS it was greater than 50 µM.

`CC1(c2ccc(Cl)cc2)C2C(=O)NC(=O)C1C(=O)NC2=O` (configuration not stated): the TGI in the assay with K-562 leukemia, in the assay on DLD-1 colon, with OVCAR-4 ovarian, in the assay with SF-268 CNS, with SNB-78 CNS and with ACHN renal was greater than 100 µM each time. Further, the TGI in the assay with CCRF-CEM leukemia and in the assay on SNB-19 CNS was greater than 100 µM each time.

As for `Cn1nc(-c2ccccc2)c2c(/C=C/c3ccccc3)onc2c1=O`, the TGI in the assay on K-562 leukemia, with DLD-1 colon, in the assay on SF-268 CNS, in the assay with SR leukemia, with SNB-78 CNS and in the assay with ACHN renal was greater than 100 µM each time. Besides, the TGI with CCRF-CEM leukemia and in the assay with SNB-19 CNS was greater than 100 µM in each case.

For the molecule `CC(=O)O[C@H]1CC[C@@]2(C)C(=CC[C@@H]3C2CC[C@]2(C)Nc4nc5ccccc5cc4CC32)C1` (some centres not stated), the TGI with K-562 leukemia was 11.6 µM; in the assay with DLD-1 colon it was 15.6 µM; in the assay with OVCAR-4 ovarian, 21.4 µM; in the assay with SF-268 CNS, 14.9 µM; in the assay on SNB-78 CNS, 21.1 µM; in the assay with ACHN renal, 16.9 µM. Besides, the TGI came to 14 µM with CCRF-CEM leukemia and 7.89 µM in the assay with SNB-19 CNS.

`CC(=O)C1=C(O)C2C3c4c[nH]c5cccc(c45)CC3C(C)(C)N2C1=O` (configuration not stated): the TGI with K-562 leukemia, in the assay on DLD-1 colon, in the assay with OVCAR-4 ovarian, in the assay with SF-268 CNS, with SNB-78 CNS and in the assay with ACHN renal was greater than 100 µM in each case. Further, the TGI with CCRF-CEM leukemia and in the assay on SNB-19 CNS was greater than 100 µM throughout.

Consider `O=c1[nH]cnc2c1nnn2CCCCCCCCCCCCn1nnc2c(=O)[nH]cnc21`, for which the TGI with K-562 leukemia is greater than 100 µM; with DLD-1 colon it was greater than 100 µM; in the assay on OVCAR-4 ovarian, greater than 100 µM; in the assay with SF-268 CNS it was 79.9 µM; with SR leukemia, greater than 100 µM; with SNB-78 CNS, 48 µM. In addition, the figures for the TGI in the assay with ACHN renal, in the assay on CCRF-CEM leukemia and in the assay on SNB-19 CNS were greater than 100 µM, greater than 100 µM and 54.9 µM, respectively.

Consider `ClC(Cl)[Si]12OCCN(CCO1)CCO2`, for which the TGI in the assay on K-562 leukemia, in the assay with DLD-1 colon, in the assay with SF-268 CNS, in the assay with SR leukemia, in the assay with SNB-78 CNS and in the assay on ACHN renal was greater than 100 µM each time. Moreover, the TGI in the assay on CCRF-CEM leukemia and with SNB-19 CNS was greater than 100 µM each time.
